Tested on: corn
Assay: Test Example-2: phytotoxicity by a soil treatment before weeds are generated under upland field conditions
Format: in vivo
Details: application amount 500 g a.i/ha, soil spray treatment before weeds are generated, about 21 days after the treatment, score 0 to 5
Description: (§1) Using the formulation prepared according to the methods described above, the herbicidal effect of the bicyclic pyrazolinone derivative of the invention according to the methods shown in Test Examples below was examined. The herbicidal effect with respect to the test weeds or the phytotoxicity with respect to the test crops was examined according to the following criteria, and evaluated in six stage scores of 0 to 5. A vat having an area of 81 cm^2 and a depth of 3.5 cm was filled with upland soil, then, seeds of Amaranthus viridis (green amaranthus), Chenopodium album (common lambsquarters), and corn were seeded thereto, and the seeds were covered with soil of about 0.5 cm. Next day, a wettable powder or an emulsifiable concentrate of the compound of the present invention prepared according to Formulation Example was diluted, and a spray treatment was uniformly performed on the covered oil so as to be a predetermined dosage. The herbicidal effect with respect to the test weeds and the phytotoxicity with respect to corn about 21 days after the treatment were evaluated according to the evaluation criteria in six stages of 0 to 5 described above.

Row | SMILES | Phytotoxicity Corn
1 | O=c1c(-c2cc(NS(=O)(=O)C3CC3)c(Cl)cc2F)c(Cl)n2n1CCCC2 [Example 5-58] | 0 (Herbicidal effect/phytotoxicity was 0% to 10%)
2 | CS(=O)(=O)Nc1cc(-c2c(Cl)n3n(c2=O)CCCC3)c(F)cc1Cl [Example 5-35] | 0 (Herbicidal effect/phytotoxicity was 0% to 10%)
3 | O=c1c(-c2cc(NS(=O)(=O)CCl)c(Cl)cc2F)c(Cl)n2n1CCOCC2 [Example 5-49] | 0 (Herbicidal effect/phytotoxicity was 0% to 10%)
4 | C#CCOc1cc(-c2c(Cl)n3n(c2=O)CCCCC3)c(F)cc1Cl [Example 1-239] | 0 (Herbicidal effect/phytotoxicity was 0% to 10%)
5 | CS(=O)(=O)N(c1cc(-c2c(Cl)n3n(c2=O)CCCC3)c(F)cc1Cl)S(C)(=O)=O [Example 5-71] | 0 (Herbicidal effect/phytotoxicity was 0% to 10%)

Tested on: Chenopodium album (common lambsquarters)
Assay: Test Example-2: herbicidal effect by a soil treatment before weeds are generated under upland field conditions
Format: in vivo
Details: application amount 500 g a.i/ha, soil spray treatment before weeds are generated, about 21 days after the treatment, score 0 to 5
Description: as §1

Row | SMILES | Herbicidal effect Chenopodium album
6 | O=c1c(-c2cc(NS(=O)(=O)C3CC3)c(Cl)cc2F)c(Cl)n2n1CCCC2 [Example 5-58] | 5 (Herbicidal effect/phytotoxicity was 90% or greater)
7 | CS(=O)(=O)Nc1cc(-c2c(Cl)n3n(c2=O)CCCC3)c(F)cc1Cl [Example 5-35] | 5 (Herbicidal effect/phytotoxicity was 90% or greater)
8 | O=c1c(-c2cc(NS(=O)(=O)CCl)c(Cl)cc2F)c(Cl)n2n1CCOCC2 [Example 5-49] | 5 (Herbicidal effect/phytotoxicity was 90% or greater)
9 | C#CCOc1cc(-c2c(Cl)n3n(c2=O)CCCCC3)c(F)cc1Cl [Example 1-239] | 5 (Herbicidal effect/phytotoxicity was 90% or greater)
10 | CS(=O)(=O)N(c1cc(-c2c(Cl)n3n(c2=O)CCCC3)c(F)cc1Cl)S(C)(=O)=O [Example 5-71] | 5 (Herbicidal effect/phytotoxicity was 90% or greater)

Tested on: Amaranthus viridis (green amaranthus)
Assay: as above
Format: in vivo
Details: application amount 500 g a.i/ha, soil spray treatment before weeds are generated, about 21 days after the treatment, score 0 to 5
Description: as §1

Row | SMILES | Herbicidal effect Amaranthus viridis
11 | O=c1c(-c2cc(NS(=O)(=O)C3CC3)c(Cl)cc2F)c(Cl)n2n1CCCC2 [Example 5-58] | 5 (Herbicidal effect/phytotoxicity was 90% or greater)
12 | CS(=O)(=O)Nc1cc(-c2c(Cl)n3n(c2=O)CCCC3)c(F)cc1Cl [Example 5-35] | 5 (Herbicidal effect/phytotoxicity was 90% or greater)
13 | O=c1c(-c2cc(NS(=O)(=O)CCl)c(Cl)cc2F)c(Cl)n2n1CCOCC2 [Example 5-49] | 5 (Herbicidal effect/phytotoxicity was 90% or greater)
14 | C#CCOc1cc(-c2c(Cl)n3n(c2=O)CCCCC3)c(F)cc1Cl [Example 1-239] | 5 (Herbicidal effect/phytotoxicity was 90% or greater)
15 | CS(=O)(=O)N(c1cc(-c2c(Cl)n3n(c2=O)CCCC3)c(F)cc1Cl)S(C)(=O)=O [Example 5-71] | 5 (Herbicidal effect/phytotoxicity was 90% or greater)

Tested on: corn
Assay: Test Example-4: phytotoxicity by a foliage treatment after weeds are generated under upland field conditions
Format: in vivo
Details: 500 g a.i/ha, foliage treatment after emergence, about 14 days after treatment, score 0-5
Outline: (§2)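 Read-out is a visual six-stage score from 0 to 5 for weed control or corn phytotoxicity, taken about 14 days after a uniform foliar spray. Plants had grown 14 days from seed in upland soil before the compound was applied at a predetermined dosage in 4000 L water per hectare.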

Row | SMILES | Phytotoxicity Corn
16 | O=c1c(-c2cc(NS(=O)(=O)C3CC3)c(Cl)cc2F)c(Cl)n2n1CCCC2 [Example 5-58] | 0 (Herbicidal effect/phytotoxicity was 0% to 10%)
17 | CS(=O)(=O)Nc1cc(-c2c(Cl)n3n(c2=O)CCCC3)c(F)cc1Cl [Example 5-35] | 0 (Herbicidal effect/phytotoxicity was 0% to 10%)
18 | O=c1c(-c2cc(NS(=O)(=O)CCl)c(Cl)cc2F)c(Cl)n2n1CCOCC2 [Example 5-49] | 1 (Herbicidal effect/phytotoxicity was 10% to 30%)
19 | C#CCOc1cc(-c2c(Cl)n3n(c2=O)CCCCC3)c(F)cc1Cl [Example 1-239] | 2 (Herbicidal effect/phytotoxicity was 30% to 50%)
20 | CS(=O)(=O)N(c1cc(-c2c(Cl)n3n(c2=O)CCCC3)c(F)cc1Cl)S(C)(=O)=O [Example 5-71] | 0 (Herbicidal effect/phytotoxicity was 0% to 10%)

Tested on: Abutilon theophrasti (velvetleaf)
Assay: Test Example-4: herbicidal effect by a foliage treatment after weeds are generated under upland field conditions
Format: in vivo
Details: 500 g a.i/ha, foliage treatment after emergence, about 14 days after treatment, score 0-5
Outline: as §2

Row | SMILES | Herbicidal effect Abutilon theophrast
21 | O=c1c(-c2cc(NS(=O)(=O)C3CC3)c(Cl)cc2F)c(Cl)n2n1CCCC2 [Example 5-58] | 5 (Herbicidal effect/phytotoxicity was 90% or greater)
22 | CS(=O)(=O)Nc1cc(-c2c(Cl)n3n(c2=O)CCCC3)c(F)cc1Cl [Example 5-35] | 5 (Herbicidal effect/phytotoxicity was 90% or greater)
23 | O=c1c(-c2cc(NS(=O)(=O)CCl)c(Cl)cc2F)c(Cl)n2n1CCOCC2 [Example 5-49] | 5 (Herbicidal effect/phytotoxicity was 90% or greater)
24 | C#CCOc1cc(-c2c(Cl)n3n(c2=O)CCCCC3)c(F)cc1Cl [Example 1-239] | 5 (Herbicidal effect/phytotoxicity was 90% or greater)
25 | CS(=O)(=O)N(c1cc(-c2c(Cl)n3n(c2=O)CCCC3)c(F)cc1Cl)S(C)(=O)=O [Example 5-71] | 5 (Herbicidal effect/phytotoxicity was 90% or greater)

Tested on: Chenopodium album (common lambsquarters)
Assay: as above
Format: in vivo
Details: 500 g a.i/ha, foliage treatment after emergence, about 14 days after treatment, score 0-5
Outline: as §2

Row | SMILES | Herbicidal effect Chenopodium album
26 | O=c1c(-c2cc(NS(=O)(=O)C3CC3)c(Cl)cc2F)c(Cl)n2n1CCCC2 [Example 5-58] | 5 (Herbicidal effect/phytotoxicity was 90% or greater)
27 | CS(=O)(=O)Nc1cc(-c2c(Cl)n3n(c2=O)CCCC3)c(F)cc1Cl [Example 5-35] | 5 (Herbicidal effect/phytotoxicity was 90% or greater)
28 | O=c1c(-c2cc(NS(=O)(=O)CCl)c(Cl)cc2F)c(Cl)n2n1CCOCC2 [Example 5-49] | 5 (Herbicidal effect/phytotoxicity was 90% or greater)
29 | C#CCOc1cc(-c2c(Cl)n3n(c2=O)CCCCC3)c(F)cc1Cl [Example 1-239] | 5 (Herbicidal effect/phytotoxicity was 90% or greater)
30 | CS(=O)(=O)N(c1cc(-c2c(Cl)n3n(c2=O)CCCC3)c(F)cc1Cl)S(C)(=O)=O [Example 5-71] | 5 (Herbicidal effect/phytotoxicity was 90% or greater)

Tested on: Amaranthus viridis (green amaranthus)
Assay: as above
Format: in vivo
Details: 500 g a.i/ha, foliage treatment after emergence, about 14 days after treatment, score 0-5
Outline: as §2

Row | SMILES | Herbicidal effect Amaranthus viridis
31 | O=c1c(-c2cc(NS(=O)(=O)C3CC3)c(Cl)cc2F)c(Cl)n2n1CCCC2 [Example 5-58] | 5 (Herbicidal effect/phytotoxicity was 90% or greater)
32 | CS(=O)(=O)Nc1cc(-c2c(Cl)n3n(c2=O)CCCC3)c(F)cc1Cl [Example 5-35] | 5 (Herbicidal effect/phytotoxicity was 90% or greater)
33 | O=c1c(-c2cc(NS(=O)(=O)CCl)c(Cl)cc2F)c(Cl)n2n1CCOCC2 [Example 5-49] | 5 (Herbicidal effect/phytotoxicity was 90% or greater)
34 | C#CCOc1cc(-c2c(Cl)n3n(c2=O)CCCCC3)c(F)cc1Cl [Example 1-239] | 5 (Herbicidal effect/phytotoxicity was 90% or greater)
35 | CS(=O)(=O)N(c1cc(-c2c(Cl)n3n(c2=O)CCCC3)c(F)cc1Cl)S(C)(=O)=O [Example 5-71] | 5 (Herbicidal effect/phytotoxicity was 90% or greater)

From patent US9580444B2, “Polycyclic pyrazolinone derivative and herbicide comprising same as effective component thereof” (priority 2013, dated 2017)
